Type in all cases: functional, cell-based
In one experiment the test system is HT-29. The experiment can be described thus: Antiproliferative activity against human HT-29 cells assessed as reduction in cell viability incubated for 24 hrs by MTT assay. Conditions: HT-29, 24 h.
The next experiment concerns HCT-116. As to the kind of experiment: Antiproliferative activity against human HCT-116 cells assessed as reduction in cell viability incubated for 24 hrs by MTT assay. Conditions: HCT-116, 24 h. A general note: Tetrazolium assays rely on reduction of a dye to a coloured formazan, in cell work by metabolically active cells.
A further experiment has as its system HepG2. The experiment can be described thus: Antiproliferative activity against human HepG2 cells assessed as reduction in cell viability incubated for 24 hrs by MTT assay. Conditions: HepG2, 24 h.
In another experiment the test system is MCF7. As to the kind of experiment: Antiproliferative activity against human MCF7 cells assessed as reduction in cell viability incubated for 24 hrs by MTT assay. As to conditions: MCF7, 24 h.

Usually IC50 stands for the concentration that inhibits the measured activity by half. Turning to `CC(=O)O[C@H]1C=C([C@H](C)[C@H]2CC(C)=C(C)C(=O)O2)[C@@]2(C)CC[C@H]3[C@@H](C[C@H]4O[C@]45[C@@H](OC(=O)c4cccs4)C=CC(=O)[C@]35C)[C@]12O`, the IC50 with HT-29 is 2.39 µM; with HCT-116 it was 3.87 µM; in the experiment with HepG2, 2.91 µM; with MCF7 it was 4.08 µM.
With `CCO/C=C/C(=O)O[C@H]1C=CC(=O)[C@]2(C)[C@H]3CC[C@]4(C)C([C@H](C)[C@H]5CC(C)=C(C)C(=O)O5)=C[C@H](OC(C)=O)[C@@]4(O)[C@@H]3C[C@H]3O[C@]132`, the IC50 in the experiment with HT-29 came out at 0.59 µM; in the experiment on HCT-116, 0.67 µM; with HepG2, 0.57 µM; in the experiment on MCF7 it was 1.21 µM.
As for `CC(=O)O[C@H]1C=C([C@H](C)[C@H]2CC(C)=C(C)C(=O)O2)[C@@]2(C)CC[C@H]3[C@@H](C[C@H]4O[C@]45C(=O)C=CC(=O)[C@]35C)[C@]12O`, the IC50 is 3.5 µM in the experiment with HT-29, 3.11 µM with HCT-116, 6.05 µM in the experiment with HepG2 and over 20 µM with MCF7.
The matching figures for `CCN(C)C(=O)O[C@H]1C=CC(=O)[C@]2(C)[C@H]3CC[C@]4(C)C([C@H](C)[C@H]5CC(C)=C(C)C(=O)O5)=C[C@H](OC(C)=O)[C@@]4(O)[C@@H]3C[C@H]3O[C@]132`: 1.78 µM, 1.97 µM, 2.37 µM and 1.79 µM.
On the same counts, the results for `CC(=O)O[C@H]1C=C([C@H](C)[C@H]2CC(C)=C(C)C(=O)O2)[C@@]2(C)CC[C@H]3[C@@H](C[C@H]4O[C@]45[C@@H](OC(=O)C4CCCN4C(=O)OC(C)(C)C)C=CC(=O)[C@]35C)[C@]12O` (stereo partly specified) are 1.01 µM, 0.67 µM, 1.06 µM and 2.1 µM.
Take `CC(=O)O[C@H]1C=C([C@H](C)[C@H]2CC(C)=C(C)C(=O)O2)[C@@]2(C)CC[C@H]3[C@@H](C[C@H]4O[C@]45[C@@H](OC(=O)/C=C/C(=O)N4CCCCC4)C=CC(=O)[C@]35C)[C@]12O`: the IC50 turned out to be 0.37 µM in the experiment with HT-29, 0.16 µM with HCT-116, 0.31 µM in the experiment with HepG2 and 0.61 µM with MCF7.
For `COC(=O)O[C@H]1C=CC(=O)[C@]2(C)[C@H]3CC[C@]4(C)C([C@H](C)[C@H]5CC(C)=C(C)C(=O)O5)=C[C@H](OC(C)=O)[C@@]4(O)[C@@H]3C[C@H]3O[C@]132`, the half-inhibitory concentration (IC50) was found to be 1.79 µM in the experiment on HT-29, 1.95 µM in the experiment with HCT-116, 2.81 µM in the experiment with HepG2 and 4.33 µM in the experiment with MCF7.
On the same counts, the results for `CC(=O)O[C@H]1C=C([C@H](C)[C@H]2CC(C)=C(C)C(=O)O2)[C@@]2(C)CC[C@H]3[C@@H](C[C@H]4O[C@]45[C@@H](OC(=O)/C=C/c4ccccc4)C=CC(=O)[C@]35C)[C@]12O` are 0.77 µM, 1.23 µM, 0.7 µM and 1.71 µM.
As for `CC(=O)O[C@H]1C=C([C@H](C)[C@H]2CC(C)=C(C)C(=O)O2)[C@@]2(C)CC[C@H]3[C@@H](C[C@H]4O[C@]45[C@@H](OC(=O)N4CCCC4)C=CC(=O)[C@]35C)[C@]12O`, the IC50 amounted to 1.12 µM in the experiment with HT-29, 0.89 µM with HCT-116, 1.23 µM in the experiment on HepG2 and 2.14 µM with MCF7.
On the same counts, the results for `CC(=O)O[C@H]1C=C([C@H](C)[C@H]2CC(C)=C(C)C(=O)O2)[C@@]2(C)CC[C@H]3[C@@H](C[C@H]4O[C@]45[C@@H](OC(=O)/C=C/C(=O)N4CCOCC4)C=CC(=O)[C@]35C)[C@]12O` are 0.43 µM, 0.46 µM, 0.37 µM and 0.76 µM.
With `C/C=C/C(=O)O[C@H]1C=CC(=O)[C@]2(C)[C@H]3CC[C@]4(C)C([C@H](C)[C@H]5CC(C)=C(C)C(=O)O5)=C[C@H](OC(C)=O)[C@@]4(O)[C@@H]3C[C@H]3O[C@]132`, the IC50 worked out at 0.37 µM in the experiment on HT-29, 0.23 µM in the experiment with HCT-116, 0.3 µM in the experiment on HepG2 and 0.53 µM in the experiment on MCF7.
The matching figures for `CC(=O)O[C@H]1C=C([C@H](C)[C@H]2CC(C)=C(C)C(=O)O2)[C@@]2(C)CC[C@H]3[C@@H](C[C@H]4O[C@]45[C@@H](OC(=O)N4CCCCC4)C=CC(=O)[C@]35C)[C@]12O`: 1.38 µM, 0.73 µM, 0.41 µM and 4.31 µM.
Take `CCC(=O)O[C@H]1C=CC(=O)[C@]2(C)[C@H]3CC[C@]4(C)C([C@H](C)[C@H]5CC(C)=C(C)C(=O)O5)=C[C@H](OC(C)=O)[C@@]4(O)[C@@H]3C[C@H]3O[C@]132`: the IC50 with HT-29 came out at 1.08 µM; in the experiment on HCT-116 it was 0.57 µM; with HepG2 it was 1.66 µM; in the experiment with MCF7, 4.81 µM.
Take `CC(=O)O[C@H]1C=C([C@H](C)[C@H]2CC(C)=C(C)C(=O)O2)[C@@]2(C)CC[C@H]3[C@@H](C[C@H]4O[C@]45[C@@H](OC(=O)C(C)NC(=O)OC(C)(C)C)C=CC(=O)[C@]35C)[C@]12O` (stereo partly specified): the IC50 with HT-29 stood at 1.79 µM; in the experiment on HCT-116, 1.95 µM; with HepG2 it was 2.81 µM; in the experiment with MCF7, 4.33 µM.
The matching figures for `CC(=O)O[C@H]1C=C([C@H](C)[C@H]2CC(C)=C(C)C(=O)O2)[C@@]2(C)CC[C@H]3[C@@H](C[C@H]4O[C@]45[C@@H](OC(=O)/C=C/C(=O)N4CCCC4)C=CC(=O)[C@]35C)[C@]12O`: 0.25 µM, 0.2 µM, 0.29 µM and 0.38 µM.
With `C/C=C/C=C/C(=O)O[C@H]1C=CC(=O)[C@]2(C)[C@H]3CC[C@]4(C)C([C@H](C)[C@H]5CC(C)=C(C)C(=O)O5)=C[C@H](OC(C)=O)[C@@]4(O)[C@@H]3C[C@H]3O[C@]132`, the IC50 was found to be 1.42 µM with HT-29, 1.35 µM with HCT-116, 1.52 µM in the experiment on HepG2 and 2.62 µM with MCF7.
With `CC(=O)O[C@H]1C=C([C@H](C)[C@H]2CC(C)=C(C)C(=O)O2)[C@@]2(C)CC[C@H]3[C@@H](C[C@H]4O[C@]45[C@@H](O)C(n4ccnc4)CC(=O)[C@]35C)[C@]12O` (stereo partly specified), the IC50 in the experiment on HT-29, in the experiment on HCT-116, in the experiment on HepG2 and in the experiment with MCF7 was over 20 µM in each case.
Turning to `CC(=O)O[C@H]1C=C([C@H](C)[C@H]2CC(C)=C(C)C(=O)O2)[C@@]2(C)CC[C@H]3[C@@H](C[C@H]4O[C@]45[C@@H](OC(C)=O)C=CC(=O)[C@]35C)[C@]12O`, the IC50 in the experiment with HT-29 is 0.8 µM; in the experiment on HCT-116 it was 0.6 µM; in the experiment on HepG2, 1.57 µM; with MCF7 it was 3.05 µM.
Turning to `CC(=O)O[C@H]1C=C([C@H](C)[C@H]2CC(C)=C(C)C(=O)O2)[C@@]2(C)CC[C@H]3[C@@H](C[C@H]4O[C@]45[C@@H](OC(=O)C(NC(=O)OC(C)(C)C)C(C)C)C=CC(=O)[C@]35C)[C@]12O` (stereo partly specified), the IC50 with HT-29 is 0.8 µM; with HCT-116, 0.6 µM; in the experiment on HepG2, 1.57 µM; in the experiment with MCF7 it was 3.05 µM.
